In assay [1] the target is T1, human GLP-1 receptor (Homo sapiens, UniProt P43220).
T1 construct: expressed in transfected cells
As to the kind of experiment: GLP-1 receptor potency assay (cAMP AlphaScreen, HEK293 cells stably expressing GLP-1R). Type of assay: cell-based. As to conditions: cAMP response, HEK293 cells expressing human GLP-1R; read-out: EC50 GLP-1. The method, boiled down: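 A HEK293 clone stably expressing cloned human GLP-1R (G418-selected) was stimulated with compound. Intracellular cAMP was measured by AlphaScreen. Responses were normalized to positive and vehicle controls, and EC50 and maximal response were fitted by 4-parameter logistic regression.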
In general terms: Alpha assays give light when donor and acceptor beads are brought close together.

Assay [2] concerns the target T2, human GLP-2 receptor (Homo sapiens, UniProt O95838, D470N).
T2 sequence (O95838 1-553 D470N): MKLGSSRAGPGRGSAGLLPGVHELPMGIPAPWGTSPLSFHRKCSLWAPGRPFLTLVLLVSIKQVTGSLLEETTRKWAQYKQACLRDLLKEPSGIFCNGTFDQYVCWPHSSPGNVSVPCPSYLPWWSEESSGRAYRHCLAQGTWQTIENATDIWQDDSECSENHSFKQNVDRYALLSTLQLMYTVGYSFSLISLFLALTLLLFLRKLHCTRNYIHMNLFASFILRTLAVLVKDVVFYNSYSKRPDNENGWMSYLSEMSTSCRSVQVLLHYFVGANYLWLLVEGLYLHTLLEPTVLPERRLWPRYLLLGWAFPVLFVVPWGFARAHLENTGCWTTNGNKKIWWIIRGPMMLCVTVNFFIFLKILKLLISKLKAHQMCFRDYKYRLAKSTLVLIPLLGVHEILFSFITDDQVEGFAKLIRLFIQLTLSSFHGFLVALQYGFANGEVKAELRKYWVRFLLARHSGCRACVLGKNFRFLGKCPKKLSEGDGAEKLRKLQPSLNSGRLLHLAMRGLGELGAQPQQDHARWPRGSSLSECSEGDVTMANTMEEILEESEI
As to the kind of experiment: GLP-2 receptor potency assay (cAMP AlphaScreen, HEK293 cells stably expressing GLP-2R). As to conditions: cAMP response, HEK293 cells expressing human GLP-2R. Type of assay: cell-based. The method, boiled down:
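HEK293 cells stably expressing human GLP-2R (G418-selected clone); intracellular cAMP measured by AlphaScreen. Responses normalized to positive and vehicle controls; EC50 and maximal response from 4-parameter logistic fit.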

Square brackets hold non-standard residues; d marks the D form. Peptide text beside a SMILES is read from it. Aib = CC(C)(N)C(=O)O

T1 sequence (P43220 24-463): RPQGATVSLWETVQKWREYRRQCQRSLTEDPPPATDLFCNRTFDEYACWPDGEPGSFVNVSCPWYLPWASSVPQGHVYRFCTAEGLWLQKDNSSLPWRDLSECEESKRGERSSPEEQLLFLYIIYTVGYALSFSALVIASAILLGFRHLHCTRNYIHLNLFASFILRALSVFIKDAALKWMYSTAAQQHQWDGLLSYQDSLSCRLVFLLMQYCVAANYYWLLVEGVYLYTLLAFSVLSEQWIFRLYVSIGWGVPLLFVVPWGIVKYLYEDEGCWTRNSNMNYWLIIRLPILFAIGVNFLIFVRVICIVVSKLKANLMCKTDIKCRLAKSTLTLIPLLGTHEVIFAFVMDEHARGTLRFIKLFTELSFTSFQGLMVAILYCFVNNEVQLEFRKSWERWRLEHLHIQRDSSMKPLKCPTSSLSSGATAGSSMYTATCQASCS

Regarding `CC[C@H](C)[C@H](NC(=O)[C@H](Cc1ccccc1)NC(=O)[C@H](CC(=O)O)NC(=O)[C@H](CCCNC(=N)N)NC(=O)[C@H](C)NC(=O)[C@H](C)NC(=O)[C@H](CCC(N)=O)NC(=O)[C@H](CCC(=O)O)NC(=O)[C@H](CC(=O)O)NC(=O)[C@H](CC(C)C)NC(=O)[C@@H](NC(=O)[C@@H](NC(=O)[C@H](C)NC(=O)[C@H](CC(C)C)NC(=O)[C@H](CCC(=O)O)NC(=O)[C@H](CO)NC(=O)[C@@H](NC(=O)[C@H](Cc1ccccc1)NC(=O)[C@H](CO)NC(=O)CNC(=O)[C@H](CCC(=O)O)NC(=O)C(C)(C)NC(=O)[C@@H](N)Cc1c[nH]cn1)[C@@H](C)O)[C@@H](C)O)[C@@H](C)CC)C(=O)N[C@@H](C)C(=O)N[C@@H](Cc1c[nH]c2ccccc12)C(=O)N[C@@H](CC(C)C)C(=O)N[C@@H](Cc1ccc(O)cc1)C(=O)N[C@@H](CCC(=O)O)C(=O)N[C@@H](Cc1c[nH]cn1)C(=O)N[C@@H](CCCCN)C(=O)N[C@H](C(=O)N[C@H](C(=O)N[C@@H](CC(=O)O)C(=O)O)[C@@H](C)O)[C@@H](C)CC` [Compound 23] (H-H[Aib]EGSFTSELATILDEQAARDFIAWLYEHKITD-OH), the EC50 (commonly the concentration giving half of the maximal effect) in assay [1] turned out to be 0.12 nM; in assay [2], 0.034 nM.

`CC[C@H](C)[C@H](NC(=O)[C@H](Cc1ccccc1)NC(=O)[C@H](CC(=O)O)NC(=O)[C@H](CCCNC(=N)N)NC(=O)[C@H](C)NC(=O)[C@H](C)NC(=O)[C@H](CCC(N)=O)NC(=O)[C@H](CCC(=O)O)NC(=O)[C@H](CC(=O)O)NC(=O)[C@H](CC(C)C)NC(=O)[C@@H](NC(=O)[C@@H](NC(=O)[C@H](C)NC(=O)[C@H](CC(C)C)NC(=O)[C@H](CCC(=O)O)NC(=O)[C@H](CO)NC(=O)[C@@H](NC(=O)[C@H](Cc1ccccc1)NC(=O)[C@H](CO)NC(=O)CNC(=O)[C@H](CCC(=O)O)NC(=O)C(C)(C)NC(=O)[C@@H](N)Cc1c[nH]cn1)[C@@H](C)O)[C@@H](C)O)[C@@H](C)CC)C(=O)N[C@@H](C)C(=O)N[C@@H](Cc1c[nH]c2ccccc12)C(=O)N[C@@H](CC(C)C)C(=O)N[C@@H](CCC(N)=O)C(=O)N[C@@H](C)C(=O)N[C@@H](Cc1c[nH]cn1)C(=O)N[C@@H](CCCCN)C(=O)N[C@H](C(=O)N[C@H](C(=O)N[C@@H](CC(=O)O)C(=O)O)[C@@H](C)O)[C@@H](C)CC` [Compound 24] (H-H[Aib]EGSFTSELATILDEQAARDFIAWLQAHKITD-OH): the EC50 in assay [1] was 0.042 nM; in assay [2], 0.049 nM.

For `CC[C@H](C)[C@H](NC(=O)[C@H](CC(C)C)NC(=O)[C@H](Cc1c[nH]c2ccccc12)NC(=O)[C@H](C)NC(=O)[C@@H](NC(=O)[C@H](Cc1ccccc1)NC(=O)[C@H](CC(=O)O)NC(=O)[C@H](CCCNC(=N)N)NC(=O)[C@H](C)NC(=O)[C@H](C)NC(=O)[C@H](CCC(N)=O)NC(=O)[C@H](CCC(=O)O)NC(=O)[C@H](CC(=O)O)NC(=O)[C@H](CC(C)C)NC(=O)[C@@H](NC(=O)[C@@H](NC(=O)[C@H](C)NC(=O)[C@H](CC(C)C)NC(=O)[C@H](CCC(=O)O)NC(=O)[C@H](CO)NC(=O)[C@@H](NC(=O)[C@H](Cc1ccccc1)NC(=O)[C@H](CO)NC(=O)CNC(=O)[C@H](CCC(=O)O)NC(=O)C(C)(C)NC(=O)[C@@H](N)Cc1c[nH]cn1)[C@@H](C)O)[C@@H](C)O)[C@@H](C)CC)[C@@H](C)CC)C(=O)N[C@@H](C)C(=O)N[C@@H](CCC(N)=O)C(=O)N[C@@H](CCCCN)C(=O)N[C@H](C(=O)N[C@H](C(=O)N[C@@H](CC(=O)O)C(=O)O)[C@@H](C)O)[C@@H](C)CC` [Compound 25] (H-H[Aib]EGSFTSELATILDEQAARDFIAWLIAQKITD-OH), the results for the EC50 in assay [1] and in assay [2] were 0.008 nM and 0.062 nM, respectively.

On to `CC[C@H](C)[C@H](NC(=O)[C@H](Cc1ccccc1)NC(=O)[C@H](CC(=O)O)NC(=O)[C@H](CCCNC(=N)N)NC(=O)[C@H](C)NC(=O)[C@H](C)NC(=O)[C@H](CCC(N)=O)NC(=O)[C@H](CCC(=O)O)NC(=O)[C@H](CC(=O)O)NC(=O)[C@H](CC(C)C)NC(=O)[C@@H](NC(=O)[C@@H](NC(=O)[C@H](C)NC(=O)[C@H](CC(C)C)NC(=O)[C@H](CCC(=O)O)NC(=O)[C@H](CO)NC(=O)[C@@H](NC(=O)[C@H](Cc1ccccc1)NC(=O)[C@H](CO)NC(=O)CNC(=O)[C@H](CCC(=O)O)NC(=O)C(C)(C)NC(=O)[C@@H](N)Cc1c[nH]cn1)[C@@H](C)O)[C@@H](C)O)[C@@H](C)CC)C(=O)N[C@@H](C)C(=O)N[C@@H](Cc1c[nH]c2ccccc12)C(=O)N[C@@H](CC(C)C)C(=O)N[C@@H](Cc1ccc(O)cc1)C(=O)N[C@@H](C)C(=O)N[C@@H](Cc1c[nH]cn1)C(=O)N[C@@H](CCCCN)C(=O)N[C@H](C(=O)N[C@H](C(=O)N[C@@H](CC(=O)O)C(=O)O)[C@@H](C)O)[C@@H](C)CC` [Compound 28] (H-H[Aib]EGSFTSELATILDEQAARDFIAWLYAHKITD-OH), for which the EC50 in assay [1] came out at 0.11 nM; in assay [2] it was 0.024 nM.

Take `CC[C@H](C)[C@H](NC(=O)[C@H](Cc1ccccc1)NC(=O)[C@H](CC(=O)O)NC(=O)[C@H](CCCNC(=N)N)NC(=O)[C@H](C)NC(=O)[C@H](C)NC(=O)[C@H](CCC(N)=O)NC(=O)[C@H](CCC(=O)O)NC(=O)[C@H](CC(=O)O)NC(=O)[C@H](CC(C)C)NC(=O)[C@@H](NC(=O)[C@@H](NC(=O)[C@H](C)NC(=O)[C@H](CC(C)C)NC(=O)[C@H](CCC(=O)O)NC(=O)[C@H](CC(=O)O)NC(=O)[C@@H](NC(=O)[C@H](Cc1ccccc1)NC(=O)[C@@H](NC(=O)CNC(=O)[C@H](CCC(=O)O)NC(=O)C(C)(C)NC(=O)[C@@H](N)Cc1c[nH]cn1)[C@@H](C)O)[C@@H](C)O)[C@@H](C)O)[C@@H](C)CC)C(=O)N[C@@H](C)C(=O)N[C@@H](Cc1c[nH]c2ccccc12)C(=O)N[C@@H](CC(C)C)C(=O)N[C@@H](CCC(N)=O)C(=O)N[C@@H](C)C(=O)N[C@@H](CCC(N)=O)C(=O)N[C@@H](CCCCN)C(=O)N[C@H](C(=O)N[C@H](C(=O)N[C@@H](CC(=O)O)C(=O)O)[C@@H](C)O)[C@@H](C)CC` [Compound 29] (H-H[Aib]EGTFTDELATILDEQAARDFIAWLQAQKITD-OH): the EC50 in assay [1] is 0.044 nM; in assay [2], 0.11 nM.

`CC[C@H](C)[C@H](NC(=O)[C@H](CC(C)C)NC(=O)[C@H](Cc1c[nH]c2ccccc12)NC(=O)[C@H](C)NC(=O)[C@@H](NC(=O)[C@H](Cc1ccccc1)NC(=O)[C@H](CC(=O)O)NC(=O)[C@H](CCCNC(=N)N)NC(=O)[C@H](C)NC(=O)[C@H](C)NC(=O)[C@H](CCCCN)NC(=O)CNC(=O)[C@H](CC(=O)O)NC(=O)[C@H](CC(C)C)NC(=O)[C@@H](NC(=O)[C@@H](NC(=O)[C@H](C)NC(=O)[C@H](CC(C)C)NC(=O)[C@H](CCC(=O)O)NC(=O)[C@H](CO)NC(=O)[C@@H](NC(=O)[C@H](Cc1ccccc1)NC(=O)[C@H](CO)NC(=O)CNC(=O)[C@H](CCC(=O)O)NC(=O)C(C)(C)NC(=O)[C@@H](N)Cc1c[nH]cn1)[C@@H](C)O)[C@@H](C)O)[C@@H](C)CC)[C@@H](C)CC)C(=O)N[C@@H](C)C(=O)N[C@@H](Cc1c[nH]cn1)C(=O)N[C@@H](CCCCN)C(=O)N[C@H](C(=O)N[C@H](C(=O)N[C@@H](CC(=O)O)C(=O)O)[C@@H](C)O)[C@@H](C)CC` [Compound 31] (H-H[Aib]EGSFTSELATILDGKAARDFIAWLIAHKITD-OH): the values for the EC50 in assay [1] and in assay [2] were 0.02 nM and 0.078 nM, respectively.

As to `CC[C@H](C)[C@H](NC(=O)[C@H](CC(C)C)NC(=O)[C@H](Cc1c[nH]c2ccccc12)NC(=O)[C@H](C)NC(=O)[C@@H](NC(=O)[C@H](Cc1ccccc1)NC(=O)[C@H](CC(=O)O)NC(=O)[C@H](CCCNC(=N)N)NC(=O)[C@H](C)NC(=O)[C@H](C)NC(=O)[C@H](CCCCN)NC(=O)CNC(=O)[C@H](CC(=O)O)NC(=O)[C@H](CC(C)C)NC(=O)[C@@H](NC(=O)[C@@H](NC(=O)[C@H](C)NC(=O)[C@H](CC(C)C)NC(=O)[C@H](CCC(=O)O)NC(=O)[C@H](CO)NC(=O)[C@H](CO)NC(=O)[C@H](Cc1ccccc1)NC(=O)[C@@H](NC(=O)CNC(=O)[C@H](CCC(=O)O)NC(=O)C(C)(C)NC(=O)[C@@H](N)Cc1c[nH]cn1)[C@@H](C)O)[C@@H](C)O)[C@@H](C)CC)[C@@H](C)CC)C(=O)N[C@@H](C)C(=O)N[C@@H](Cc1c[nH]cn1)C(=O)N[C@@H](CCCCN)C(=O)N[C@H](C(=O)N[C@H](C(=O)N[C@@H](CC(=O)O)C(=O)O)[C@@H](C)O)[C@@H](C)CC` [Compound 32] (H-H[Aib]EGTFSSELATILDGKAARDFIAWLIAHKITD-OH), the EC50 in assay [1] is 0.038 nM; in assay [2], 0.15 nM.

The values above are taken from US11130793B2, “GLP-1/GLP-2 dual agonists” (Zealand Pharma A/S, priority 2016, dated 2021).
